Where “and” joins values, the source holds several entries; their conditions need not be identical. Equal entries are not always repeated.

Experimental findings from publication PMC7156724, “Potent BRD4 inhibitor suppresses cancer cell-macrophage interaction” (Nature Communications, 2020) are described below.

For one series, the system named is HIF1A mRNA. The series is described as follows: RT-qPCR of HIF1A in A375 or A2780 cells. The class given is cell-based, human. The method, then: Fig. 7 NHWD-870 inhibited CSF1 expression through suppressing BRD4 and HIF1α in tumor cells. a, b Representative western blot analysis of control (Ctrl) and BRD4 knockout (KO) A375 and A2780 cells exposed to 20% or 1% O2 for 24 hours. Selected from three independent experiments. c, d Representative western blot analysis of A375 and A2780 cells treated with DMSO or 25 nM NHWD-870 and exposed to 20% or 1% O2 for 24 h. Selected from three independent experiments. e Relative HIF1 luciferase reporter activity in control (Ctrl), BRD4 knockout (KO), or NHWD-870 treated A375 and A2780 cells exposed to 20% or 1% O2 for 24 h. Data are presented as mean ± SEM from three independent experiments. f RT-qPCR analyses of CSF1 in control (Ctrl), BRD4 knockout (KO), or NHWD-870 treated A375 and A2780 cells exposed to 20% or 1% O2 for 24 hours. Data are presented as mean ± SEM from three independent experiments. g RT-qPCR analyses of HIF1A in A375 or A2780 cells treated with 15 nM NHWD-870 or DMSO control for 24 h. Data are presented as mean ± SEM from three independent experiments. h Genome browser view of BRD4 ChIP-seq peaks on the HIF1A promoter. […] NHWD-870 inhibits the proliferation and survival of TAMs partly by inhibiting BRD4 activity, HIF1α expression, and CSF1 secretion by tumor cells, and downregulating CSF1R mediated ERK and PI3K/AKT signaling in TAMs. p values were calculated using two-tailed, unpaired t tests in this figure. *p < 0.05; **p < 0.01; ***p < 0.001. […]
Total RNA was extracted with RNeasy plus mini kit (Qiagen), and then cDNA was synthesized by iScript™ cDNA Synthesis Kit (Bio-Rad). qPCR was performed using a CFX96 Real-time PCR Instrument (BioRad). Data were collected using CFX Manager version 3.1.1517.823 and analyzed using Microsoft Excel 2010. Relative expression levels were determined by normalization to human GAPDH using the ∆∆Ct method. […]
On the technique in general: Quantitative PCR measures a nucleic acid by following its amplification.

Series [1] relates to monocytes in peripheral blood. The series is described as follows: Complete blood cell counting of monocytes in B16F10 tumor bearing mice. The class given is in vivo, mouse. To be noted: B16F10 melanoma tumor bearing mice, 11 days. The method, then:
Reviewer Fig 3. […] B16F10 melanoma […]
tumor bearing mice (n=5) treated with the indicated compounds for 11 days. Monocytes in blood of DMSO and NHWD-870-treated mice were analyzed by complete blood cell counting (CBC). […]
tumor cells blocks mCSF expression and blocks proliferation of macrophages ex vivo. It is not possible from these studies to conclude if NHWD-870 mediated inhibition of mCSF expression is responsible for […]
In part, this is because the culture conditions for this unusual assay have not been described in the methods or text sections. What are the components of the culture medium? Does it include serum, mCSF and other growth factors? A more direct method of testing the effect of tumor cell expressed mCSF on TAMs ex vivo is to incubate TAMs in defined tumor cell conditioned media from untreated and treated tumor cells (the media placed on the macrophages should not include the drug, however). However, there is one other key weakness to these studies that […]
It is thus not clear if absence of mCSF or products from dying cells suppress macrophage growth as colonies ex vivo. […]
experiments, which has been added and addressed in response to comment #4. We agree that the experiments can be done with conditioned media. […]
Shown are schematics of the experiments (m) and quantification of TAMs (n, o). […]

Take `Cc1nnn(C)c1-c1cnc2c3c4cnn(C)c4ccc3n([C@H](c3ccccc3)C3CCOCC3)c2c1` [NHWD-870]: the “HIF1A mRNA levels” value in the series on HIF1A mRNA (15 nM, 24 h, A375 or A2780 cells) is “decreased HIF1A mRNA levels”. For the same compound, the “HIF1A mRNA, relative to DMSO (Fig.7g)” value is 0.3638 and 0.3259 and 0.3497 in the series on HIF1A mRNA (A375); 0.269 and 0.2453 and 0.2176 with HIF1A mRNA (A2780). Also, the “effects on monocytes in peripheral blood” value in series [1] is “relatively mild effects”.
